Assay results as given in ChEMBL document CHEMBL1773004, “1-[(1-methyl-1H-imidazol-2-yl)methyl]-4-phenylpiperidines as mGluR2 positive allosteric modulators for the treatment of psychosis” (J Med Chem, 2011).
Calls of active or inactive are those of the source. The rule behind the calls is not given here.

How the values were obtained:
[1] = target: Metabotropic glutamate receptor 2 (Rattus norvegicus, UniProt P31421); experiment: Positive allosteric modulation of rat mGluR2 expressed in HEK293 cells co-expressing Galpha15 G protein assessed as increase in glutamate-induced intracellular calcium release by FLIPR assay; assay type: functional, cell-based
Metabotropic glutamate receptor 2 (Rattus norvegicus, UniProt P31421), sequence (P31421 whole entry): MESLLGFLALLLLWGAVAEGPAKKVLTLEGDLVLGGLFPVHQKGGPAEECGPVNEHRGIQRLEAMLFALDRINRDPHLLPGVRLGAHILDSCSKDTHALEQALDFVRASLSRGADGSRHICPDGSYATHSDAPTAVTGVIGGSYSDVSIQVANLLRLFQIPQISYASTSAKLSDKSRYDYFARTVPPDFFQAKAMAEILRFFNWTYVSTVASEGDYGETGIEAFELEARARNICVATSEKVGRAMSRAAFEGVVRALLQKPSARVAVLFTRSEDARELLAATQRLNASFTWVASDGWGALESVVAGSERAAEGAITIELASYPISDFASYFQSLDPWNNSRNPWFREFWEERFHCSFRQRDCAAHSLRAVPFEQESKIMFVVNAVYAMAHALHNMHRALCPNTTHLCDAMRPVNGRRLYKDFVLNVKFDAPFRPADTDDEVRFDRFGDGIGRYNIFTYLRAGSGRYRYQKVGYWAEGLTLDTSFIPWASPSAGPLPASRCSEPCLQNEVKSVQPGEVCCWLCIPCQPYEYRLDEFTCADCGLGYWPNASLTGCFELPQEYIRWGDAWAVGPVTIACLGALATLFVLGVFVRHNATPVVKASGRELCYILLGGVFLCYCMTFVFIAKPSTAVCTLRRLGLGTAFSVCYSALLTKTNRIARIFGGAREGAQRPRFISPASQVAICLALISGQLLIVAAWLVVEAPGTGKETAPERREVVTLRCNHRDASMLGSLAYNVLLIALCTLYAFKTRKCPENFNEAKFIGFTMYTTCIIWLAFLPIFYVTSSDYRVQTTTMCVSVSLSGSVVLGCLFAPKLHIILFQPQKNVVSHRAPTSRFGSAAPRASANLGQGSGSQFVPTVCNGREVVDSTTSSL

[2] = target: D(2) dopamine receptor (Rattus norvegicus, UniProt P61169); experiment: Displacement of [3H]spiperone from dopamine D2 receptor in rat corpus striatum by beta plate scintillation counting; assay type: tissue-based
D(2) dopamine receptor, sequence (P61169 whole entry): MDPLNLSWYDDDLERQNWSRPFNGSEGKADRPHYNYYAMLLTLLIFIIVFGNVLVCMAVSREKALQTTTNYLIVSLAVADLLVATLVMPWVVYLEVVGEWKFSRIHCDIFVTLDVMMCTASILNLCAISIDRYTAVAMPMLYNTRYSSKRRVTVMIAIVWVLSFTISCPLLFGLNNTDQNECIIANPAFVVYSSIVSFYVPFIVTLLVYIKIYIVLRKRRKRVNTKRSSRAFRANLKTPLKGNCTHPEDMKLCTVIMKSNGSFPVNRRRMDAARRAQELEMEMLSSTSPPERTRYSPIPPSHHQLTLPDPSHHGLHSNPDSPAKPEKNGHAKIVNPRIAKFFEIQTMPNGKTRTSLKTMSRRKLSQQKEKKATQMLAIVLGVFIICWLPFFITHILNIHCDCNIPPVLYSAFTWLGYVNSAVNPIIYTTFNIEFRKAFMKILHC

[3] = target: Metabotropic glutamate receptor 5 (Homo sapiens) (UniProt P41594); experiment: Agonist activity at mGlu5 receptor at up to 10 uM; assay type: functional
Metabotropic glutamate receptor 5 (Homo sapiens), sequence (P41594 21-1212 limits assumed): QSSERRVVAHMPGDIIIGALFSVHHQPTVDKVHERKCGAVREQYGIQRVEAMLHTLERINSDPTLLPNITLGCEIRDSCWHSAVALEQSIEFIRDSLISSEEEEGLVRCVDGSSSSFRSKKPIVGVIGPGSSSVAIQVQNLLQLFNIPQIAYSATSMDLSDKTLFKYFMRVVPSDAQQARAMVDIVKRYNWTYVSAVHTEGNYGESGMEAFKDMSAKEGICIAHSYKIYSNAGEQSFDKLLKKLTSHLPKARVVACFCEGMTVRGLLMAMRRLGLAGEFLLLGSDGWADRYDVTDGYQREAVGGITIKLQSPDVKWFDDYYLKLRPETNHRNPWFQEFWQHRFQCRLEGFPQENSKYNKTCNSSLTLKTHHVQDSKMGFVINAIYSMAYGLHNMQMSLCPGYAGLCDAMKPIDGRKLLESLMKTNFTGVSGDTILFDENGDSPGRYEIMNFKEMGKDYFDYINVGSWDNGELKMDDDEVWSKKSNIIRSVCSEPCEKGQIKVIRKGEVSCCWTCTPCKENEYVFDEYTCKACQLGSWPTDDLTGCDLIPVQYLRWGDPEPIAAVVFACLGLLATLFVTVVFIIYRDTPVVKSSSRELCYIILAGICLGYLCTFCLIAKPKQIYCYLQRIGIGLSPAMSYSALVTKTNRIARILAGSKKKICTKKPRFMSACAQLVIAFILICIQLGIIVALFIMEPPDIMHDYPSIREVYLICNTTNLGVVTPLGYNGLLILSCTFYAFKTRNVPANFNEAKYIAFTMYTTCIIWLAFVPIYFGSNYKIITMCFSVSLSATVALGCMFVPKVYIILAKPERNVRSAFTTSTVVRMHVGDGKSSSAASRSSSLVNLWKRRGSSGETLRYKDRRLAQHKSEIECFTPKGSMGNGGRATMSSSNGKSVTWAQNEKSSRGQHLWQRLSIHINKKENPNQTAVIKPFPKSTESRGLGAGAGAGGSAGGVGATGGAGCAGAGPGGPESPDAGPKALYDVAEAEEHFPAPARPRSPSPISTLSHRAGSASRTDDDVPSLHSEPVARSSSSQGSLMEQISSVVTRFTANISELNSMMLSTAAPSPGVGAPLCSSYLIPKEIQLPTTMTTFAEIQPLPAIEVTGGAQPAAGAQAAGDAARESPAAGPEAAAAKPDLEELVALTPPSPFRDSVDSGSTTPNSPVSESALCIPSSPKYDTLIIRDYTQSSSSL

[4] = test system: MDCK; experiment: Efflux ratio of permeability from […] of MDR1 transfected MDCK cells at 1 uM; assay type: ADME, cell-based, Canis lupus familiaris; details: dog
[5] = test system: HEK293; experiment: Selectivity ratio of Ki for dopamine D2 receptor in rat corpus striatum to EC50 for rat mGluR2 expressed in HEK293 cells; assay type: cell-based
[6] = target: Metabotropic glutamate receptor 5 (Homo sapiens) (UniProt P41594); experiment: Antagonist activity at mGlu5 receptor at up to 10 uM; assay type: functional
[7] = test system: Brain; experiment: Fraction unbound in rat brain by LC-MS/MS assay; assay type: ADME, tissue-based
[8] = Ratio of drug level in brain to plasma in rat at 3.2 mg/kg, sc after 60 mins; assay type: ADME, organism-based; parameters: dose 3.2 mg/kg, route subcutaneous
[9] = Ratio of drug level in brain to plasma in mouse at 10 mg/kg, sc after 60 mins; assay type: ADME, organism-based; parameters: dose 10 mg/kg, route subcutaneous
[10] = target: Metabotropic glutamate receptor 1 (Homo sapiens) (UniProt Q13255); experiment: Agonist activity at mGlu1 receptor at up to 10 uM; assay type: functional
Metabotropic glutamate receptor 1 (Homo sapiens), sequence (Q13255 19-1194 limits assumed): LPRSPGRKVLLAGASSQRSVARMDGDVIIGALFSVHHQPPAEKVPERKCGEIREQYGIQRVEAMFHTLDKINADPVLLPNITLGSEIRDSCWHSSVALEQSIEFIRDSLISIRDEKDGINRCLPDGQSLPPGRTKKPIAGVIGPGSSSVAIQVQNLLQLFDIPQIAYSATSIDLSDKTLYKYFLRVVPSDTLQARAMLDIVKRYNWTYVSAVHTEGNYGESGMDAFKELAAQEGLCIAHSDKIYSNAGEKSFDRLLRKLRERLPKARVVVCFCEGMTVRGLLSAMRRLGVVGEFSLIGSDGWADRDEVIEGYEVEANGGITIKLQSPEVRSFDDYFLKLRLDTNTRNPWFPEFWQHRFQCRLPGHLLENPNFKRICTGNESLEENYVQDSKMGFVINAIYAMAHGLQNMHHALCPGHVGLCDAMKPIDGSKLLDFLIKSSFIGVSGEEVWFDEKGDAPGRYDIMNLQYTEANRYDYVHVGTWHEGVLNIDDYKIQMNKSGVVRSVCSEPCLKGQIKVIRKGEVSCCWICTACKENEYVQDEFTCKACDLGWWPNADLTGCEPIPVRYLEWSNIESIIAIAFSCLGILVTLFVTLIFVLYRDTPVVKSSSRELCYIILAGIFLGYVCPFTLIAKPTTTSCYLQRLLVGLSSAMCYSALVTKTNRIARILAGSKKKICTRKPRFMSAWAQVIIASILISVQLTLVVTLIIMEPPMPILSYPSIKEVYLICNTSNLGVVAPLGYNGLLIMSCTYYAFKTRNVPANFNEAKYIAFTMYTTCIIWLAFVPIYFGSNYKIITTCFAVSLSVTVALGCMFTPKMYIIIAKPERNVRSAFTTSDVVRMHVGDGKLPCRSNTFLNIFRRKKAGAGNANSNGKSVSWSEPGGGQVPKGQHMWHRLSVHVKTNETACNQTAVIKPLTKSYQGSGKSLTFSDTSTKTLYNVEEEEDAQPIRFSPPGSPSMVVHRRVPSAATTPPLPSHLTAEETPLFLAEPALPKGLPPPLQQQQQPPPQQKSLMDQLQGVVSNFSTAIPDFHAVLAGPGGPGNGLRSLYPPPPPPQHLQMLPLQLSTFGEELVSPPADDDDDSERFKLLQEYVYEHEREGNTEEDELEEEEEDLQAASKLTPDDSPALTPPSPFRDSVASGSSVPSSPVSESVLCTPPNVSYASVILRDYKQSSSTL

[11] = Cmax in rat brain at 5 mg/kg, po; assay type: ADME, organism-based; parameters: dose 5 mg/kg, route oral
[12] = target: Metabotropic glutamate receptor 1 (Homo sapiens) (UniProt Q13255); experiment: Antagonist activity at mGlu1 receptor at up to 10 uM; assay type: functional
[13] = target: Metabotropic glutamate receptor 2 (Homo sapiens, UniProt Q14416); experiment: Positive allosteric modulation of human mGluR2 expressed in HEK293 cells co-expressing Galpha15 G protein assessed as increase in glutamate-induced intracellular calcium release by FLIPR assay; assay type: functional, cell-based
Metabotropic glutamate receptor 2 (Homo sapiens, UniProt Q14416), sequence (Q14416 whole entry): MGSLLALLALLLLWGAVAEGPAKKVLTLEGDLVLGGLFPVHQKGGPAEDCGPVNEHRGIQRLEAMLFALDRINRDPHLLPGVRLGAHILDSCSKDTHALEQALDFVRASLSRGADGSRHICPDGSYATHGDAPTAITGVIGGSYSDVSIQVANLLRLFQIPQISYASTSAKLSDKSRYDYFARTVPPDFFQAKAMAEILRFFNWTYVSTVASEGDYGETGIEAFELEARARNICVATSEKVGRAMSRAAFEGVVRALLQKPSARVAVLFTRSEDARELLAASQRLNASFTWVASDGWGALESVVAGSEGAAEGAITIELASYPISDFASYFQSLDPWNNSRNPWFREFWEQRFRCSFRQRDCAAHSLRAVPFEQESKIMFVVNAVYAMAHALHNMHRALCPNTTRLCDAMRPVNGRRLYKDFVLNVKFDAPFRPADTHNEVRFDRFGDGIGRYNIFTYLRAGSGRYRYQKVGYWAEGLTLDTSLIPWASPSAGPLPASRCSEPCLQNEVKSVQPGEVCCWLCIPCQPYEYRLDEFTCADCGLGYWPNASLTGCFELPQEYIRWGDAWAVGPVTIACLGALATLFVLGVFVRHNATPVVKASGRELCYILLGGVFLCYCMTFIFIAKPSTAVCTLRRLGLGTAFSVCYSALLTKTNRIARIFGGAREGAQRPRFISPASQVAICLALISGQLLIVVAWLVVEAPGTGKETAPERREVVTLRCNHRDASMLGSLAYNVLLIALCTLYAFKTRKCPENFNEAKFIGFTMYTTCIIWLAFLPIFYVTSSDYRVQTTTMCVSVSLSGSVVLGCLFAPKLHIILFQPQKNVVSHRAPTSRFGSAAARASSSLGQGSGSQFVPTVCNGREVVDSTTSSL

[14] = target: Metabotropic glutamate receptor 5 (Homo sapiens) (UniProt P41594); experiment: Positive allosteric modulation of mGlu5 receptor at up to 10 uM
[15] = Permeability from apical to basolateral side of MDR1 transfected MDCK cells at 1 uM; assay type: ADME, cell-based, Canis lupus familiaris; details: dog, read-out: permeability
[16] = Plasma clearance in rat at 1 mg/kg, iv; assay type: ADME, organism-based; parameters: dose 1 mg/kg, route intravenous
[17] = Oral bioavailability in rat at 10 mg/kg; assay type: ADME, organism-based; details: in vivo
[18] = Cmax in rat brain at 10 mg/kg, po; assay type: ADME, organism-based; parameters: dose 10 mg/kg, route oral
[19] = Cmax in rat brain at 3 mg/kg, po; assay type: ADME, organism-based; parameters: dose 3 mg/kg, route oral
[20] = test system: Mus musculus; experiment: Antipsychotic activity in sc dosed mouse assessed as inhibition of methamphetamine-induced hyperlocomotion measured for 60 mins; assay type: functional
[21] = Plasma clearance in rat at 0.5 mg/kg, iv; assay type: ADME, organism-based; parameters: dose 0.5 mg/kg, route intravenous
[22] = test system: Mus musculus; experiment: Antipsychotic activity in sc dosed CD1 mouse assessed as inhibition of mescaline-induced scratching behavioral response administered 20 mins before mescalin challenge measured for 12 mins; assay type: functional
[23] = Oral bioavailability in rat at 3 mg/kg; assay type: ADME, organism-based; details: in vivo

Cn1c(CN2CCC(c3ccc(C(F)(F)F)cc3)CC2)nc2cnccc21
EC50 [1]: 168 nM
Ki [2]: 671 nM

COc1cc(C(F)(F)F)ccc1[C@@H]1CCN(Cc2nc3ncccc3n2C)C[C@@H]1C
Activity [3]: inactive
Ratio [4]: 1.5
Ratio [5]: > 239
EC50 [1]: 22 nM
Activity [6]: inactive
Fu [7]: 0.6%
Ki [2]: > 5260 nM
Kp at 1 h [8]: 8
Kp at 1 h [9]: 1.7
Activity [10]: inactive
Cmax [11]: 1580 nM
Activity [12]: inactive
EC50 [13]: 76 nM
Activity [14]: inactive
Papp A→B at 1 µM [15]: 19 ×10⁻⁶ cm/s

C[C@@H]1C[C@H](c2ccc(C(F)(F)F)cc2)CCN1Cc1nc2ncccc2n1C
EC50 [1]: 454 nM
Ki [2]: 589 nM

Cn1c(CN2CCC(c3ccccc3Cl)CC2)nc2ccccc21
EC50 [1]: 144 nM

COc1ccccc1N1CCN(Cc2c(Br)c(=O)n(-c3ccccc3)n2C)CC1
EC50 [1]: 891 nM

Cn1c(CN2[C@@H]3CC[C@H]2CC(c2ccc(C(F)(F)F)cc2)C3)nc2ncccc21 (stereo partly drawn)
EC50 [1]: 184 nM
Ki [2]: 355 nM

Cn1c(CN2CCC(c3ccc(C(F)(F)F)cc3)CC2)nc2ncccc21
Ratio [4]: 1.4
Ratio [5]: 8
clearance [16]: 5.4 mL/min/kg
EC50 [1]: 48 nM
Ki [2]: 404 nM
Kp at 1 h [8]: 5
bioavailability [17]: 100%
EC50 [13]: 43 nM
Cmax [18]: 5210 nM
Papp A→B at 1 µM [15]: 30 ×10⁻⁶ cm/s

C[C@H]1CN(Cc2nc3ncccc3n2C)CC[C@H]1c1ccc(OC(F)(F)F)cc1F
Cmax [19]: 1070 nM
Activity [3]: inactive
inhibition [20]: Dose-dependent effect
minimal effective dose ([20]; 1 h, read-out: MED): 17.8 mg/kg
clearance [21]: 4.5 mL/min/kg
Activity [6]: inactive
Fu [7]: 0.3%
Ki [2]: > 4680 nM
Kp at 1 h [8]: 4
inhibition [22]: Dose-dependent effect
minimal effective dose ([22]; read-out: MED): 10 mg/kg
Kp at 1 h [9]: 1.2
Activity [10]: inactive
Activity [12]: inactive
bioavailability [23]: 50%
Activity [14]: inactive
Papp A→B at 1 µM [15]: 14 ×10⁻⁶ cm/s

Cn1c(CN2CC[C@@H](c3ccc(C(F)(F)F)cc3)C(C)(C)C2)nc2ncccc21
EC50 [1]: 745 nM
Ki [2]: > 2800 nM

C[C@@H]1CN(Cc2nc3ncccc3n2C)CC[C@@H]1c1ccc(C(F)(F)F)cc1
EC50 [1]: > 1990 nM
Ki [2]: > 2800 nM

Cn1c(CN2CCC(c3cccc(C#N)c3)CC2)nc2ccccc21
EC50 [1]: 1620 nM

C[C@@H]1CN(Cc2nc3ncccc3n2C)CC[C@@H]1c1ccc(Cl)cc1F
EC50 [1]: > 1810 nM

C[C@H]1CN(Cc2nc3ncccc3n2C)CC[C@H]1c1ccc(C(F)(F)F)cc1
EC50 [1]: 33 nM
Ki [2]: > 2800 nM

Cn1c(CN2CCC(c3ccc(OC(F)(F)F)cc3F)CC2)nc2ncccc21
EC50 [1]: 25 nM
Ki [2]: 1180 nM

C[C@@H]1CN(Cc2nc3ncccc3n2C)CC[C@@H]1c1ccc(C(F)(F)F)cc1F
EC50 [1]: 993 nM

Cn1c(CN2CCC(c3ccc(Cl)cc3F)CC2)nc2ccccc21
EC50 [1]: 7.6 nM

Cc1cc(C2CCN(Cc3nc4ccccc4n3C)CC2)nc(N2CCCC2)n1
EC50 [1]: 4790 nM
